Measured values published in patent US5461154A, “Intermediate and process for making” (Eli Lilly and Company, priority 1994, dated 1995).
Like-named read-outs stand apart in the source and are kept apart here.

Molecular target: T1, HIV-1 protease (Human immunodeficiency virus type 1 group M subtype B, UniProt P04585)
T1 construct: Purified HIV-1 protease was obtained as described above; made in house; host or cells: E. coli K12 L507/pHP10D (NRRL B-18560)
Experiment: biochemical
Protocol: A culture of E. coli K12 L507/pHP10D was grown to mid-log phase at 32° C. in LB media containing 12.5 μg/mL tetracycline. The cultivation temperature was quickly elevated to 40° C. to induce gene expression, and the cells were allowed to grow for 2.5 hours at this temperature before the culture was quickly chilled on ice. The cells were centrifuged and the cell pellet was resuspended in 20 mL of 50 mmol MES buffer (pH 6.0) containing 1 mmol EDTA, 1 mmol DTT, 1 mmol PMSF and 10% glycerol ("Buffer A"). Cells were lysed by sonication using a Fischer Model 300 Dismembrator and a microtip probe. Following centrifugation at 27,000×g, the supernatant was diluted to a total volume of 60 mL with Buffer A and loaded onto a 2.0×19 cm QAE-Sepharose column (1 mL/min, 4° C.), that had been equilibrated in Buffer A. The column was washed isocratically for 180 min and then eluted with a gradient eluent of 0-1.0M aqueous sodium chloride in Buffer A over 120 min. Enzymatic activity was measured by HPLC using the synthetic peptide Ser-Gln-Asn-Tyr-Pro-Ile-Val as described in Margolin et al., Biochem. Biophys. Res. Common., 167, 554-560 (1990); the production of the p1 peptide (Ser-Gln-Asn-Tyr) was measured.
The active fractions were combined, adjusted to […] 1.2M in ammonium sulfate, and applied to a 2.0×18 cm hexyl agarose column that had been equilibrated in Buffer A containing 1.2M ammonium sulfate. The sample was loaded at a flow rate of 1 mL/min at 4° C., washed with the equilibration buffer for 240 min (1 mL/min) and then eluted using a reverse linear gradient of 1.2-0M ammonium sulfate in Buffer A for 120 min at the same flow rate. The column was then washed isocratically in Buffer A for 120 min.
The active fractions were combined, concentrated to 10 mL using an Amicon stirred cell with a YM-10 membrane and then applied to a MonoS cation exchange column (1.0×10 cm) that had been equilibrated in Buffer A. The sample was loaded at a flow rate of 1 mL/min at 25° C. After washing isocratically for 30 min, the protease was eluted using a linear gradient of 0-0.45M aqueous sodium chloride in Buffer A over 40 min. The column was washed isocratically in Buffer A containing 0.45M aqueous sodium chloride for 30 minutes.
The active fractions were combined and concentrated to 200 μL using an Amicon stirred cell and a YM-10 membrane and then the protease was applied to a Superose 6 size exclusion column equilibrated in Buffer A containing 0.1M aqueous sodium chloride.
E. Fluorescence HIV-1 Protease Inhibitor Assay
The following buffers and solutions are used in the Fluorescence HIV-1 Protease Inhibitor Assay:
To each well of a round bottom, 96-well plate is added 20 μL of the Enzyme Solution followed by 10 μL of the compound to be evaluated in a 20% aqueous dimethylsulfoxide solution. Purified HIV-1 protease was obtained as described above. The resulting solution is incubated for one hour at room temperature and then 20 μL of a solution containing the substrate, prepared above, in MES-ALB buffer (1.5 μL/mL) is added to each well. The solutions are then incubated for 16 hours at room temperature and then each well is diluted with 150 μL of MES-ALB buffer.
To each well of a second round bottom, 96-well Pandex plate is added 25 uL of the Avidin Coated Beads Solution. Then, to each well is added 25 μL of the diluted incubation solutions, prepared above. The solutions are mixed thoroughly and the plates are loaded into a Pandex® machine, washed, evacuated and read. Sample detection was performed by excitation at 485 nm, reading the resulting epifluorescence at 535 nm.

[1] = read-out: Fluorescence Assay IC50 (converted)

Row | SMILES | IC50 [1] [nM] | further results
1 | Cc1c(O)cccc1C(=O)N[C@@H](Cc1ccccc1)[C@H](O)CN1CCC[C@H]1C(=O)NC(C)(C)C [Example 4, [2S-(2R*,2'S*,3'R*)]-1-[2'-Hydroxy-3'-phenylmethyl-4'-aza-5'-oxo-5'-(2"-methyl-3"-hydroxyphenyl)pentyl]pyrrolidine-2-N-t-butylcarboxamide] | – | IC50: 3050 nM
2 | Cc1c(O)cccc1C(=O)N[C@@H](Cc1ccccc1)[C@H](O)CN1CCCC[C@H]1C(=O)NC(C)(C)C [Example 6, [2S-(2R*,2'S*,3'R*)]-1-[2'-Hydroxy-3'-phenylmethyl-4'-aza-5'-oxo-5'-(2"-methyl-3"-hydroxyphenyl)pentyl]piperidine-2-N-t-butylcarboxamide] | – | IC50: 1070 nM
3 | CC(C)(C)NC(=O)[C@@H]1C[C@@H]2CCCC[C@@H]2CN1C[C@@H](O)[C@H](Cc1ccccc1)NC(=O)c1cccc(Cl)c1Cl [Example 14, [3S-(3R*,4aR*,8aR*,2'S*,3R*)]-2-[2'-Hydroxy-3'-phenylmethyl-4'-aza-5'-oxo-5'-(2",3"-dichlorophenyl)pentyl]decahydroisoquinoline-3-N-t-butylcarboxamide] | 176 | –
4 | Cc1c(C(=O)N[C@@H](Cc2ccccc2)[C@H](O)CN2C[C@H]3CCCC[C@H]3C[C@H]2C(=O)NC(C)(C)C)cc[nH]c1=O [Example 16, [3S-(3R*,4aR*,8aR*,2'S*,3'R*)]-2-[2'-Hydroxy-3-phenylmethyl-4'-aza-5'-oxo-5'-(2"-oxo-3"-methyl-pyrid-4"-yl)pentyl]decahydroisoquinoline-3-N-t-butylcarboxamide] | 613 | –
5 | CC(C)(C)NC(=O)[C@@H]1C[C@@H]2CCCC[C@@H]2CN1C[C@@H](O)[C@H](Cc1ccccc1)NC(=O)c1c(Cl)ccc(O)c1Cl [Example 17, [3S-(3R*,4aR*,8aR*,2'S*,3'R*)]-2-[2'-Hydroxy-3'-phenylmethyl-4'-aza-5'-oxo-5'-(2",6"-dichloro-3"-hydroxyphenyl)pentyl]decahydroisoquinoline-3-N-t-butylcarboxamide] | 455 | –
6 | CC(C)(C)NC(=O)[C@@H]1CN(Cc2cccnc2)CCN1C[C@@H](O)[C@H](CSc1ccccc1)NC(=O)c1cccc2ncccc12 [Example 34, [2S-(2R*,2'S*,3'S*)]-1-[2'-Hydroxy-3'-phenylthiomethyl-4'-aza-5'-oxo-5'-(quinolin-5"-yl)pentyl]-4-(pyrid-3'"-ylmethyl)piperazine-2-N-t-butylcarboxamide] | 7.18 | –
7 | Cc1cnccc1C(=O)N[C@@H](CSc1ccccc1)[C@H](O)CN1CCN(Cc2cccnc2)C[C@H]1C(=O)NC(C)(C)C [Example 35, [2S-(2R*,2'S*,3'S*)]-1-[2'-Hydroxy-3'-phenylthiomethyl-4'-aza-5'-oxo-5'-[3"-methyl-pyrid-4"-yl)]pentyl]-4-(pyrid-3'"-ylmethyl)piperazine-2-N-t-butylcarboxamide] | 53.7 | –
8 | Cc1c(NS(C)(=O)=O)cccc1C(=O)N[C@@H](Cc1ccccc1)[C@H](O)CN1C[C@H]2CCCC[C@H]2C[C@H]1C(=O)NC(C)(C)C [Example 36, [3S-(3R*,4aR*,8aR*,2'S*,3'S*)]-2-[2'-Hydroxy-3'-phenylmethyl-4'-aza-5'-oxo-5'-[2"-methyl-3"-N-(methylsulfonyl)amino-phenyl)]pentyl]decahydroisoquinoline-3-N-t-butylcarboxamide] | – | IC50 (read-out: Fluorescence Assay IC50, […], room temperature, 16 hours with substrate): 101 nM
9 | Cc1ccc2ncccc2c1C(=O)N[C@@H](CSc1ccccc1)[C@H](O)CN1C[C@H]2CCCC[C@H]2C[C@H]1C(=O)NC(C)(C)C [Example 38] | 25.2 | –
